Data taken from article PMC2376372, “3-Bromophenyl 6-acetoxymethyl-2-oxo-2H-1-benzopyran-3-carboxylate inhibits cancer cell invasion in vitro and tumour growth in vivo” (British Journal of Cancer, 2003).

Columns and labels:
HLE [1] = target: T1, HLE (Homo sapiens, UniProt P08246); experiment: Inactivation of human leucocyte elastase (progress curve method); format: biochemical; settings: pH 8.0, 25°C, read-out: ki/KI or kobs/[I], HLE
T1 construct: purchased Elastase Products Co
T1 sequence (P08246 30-267): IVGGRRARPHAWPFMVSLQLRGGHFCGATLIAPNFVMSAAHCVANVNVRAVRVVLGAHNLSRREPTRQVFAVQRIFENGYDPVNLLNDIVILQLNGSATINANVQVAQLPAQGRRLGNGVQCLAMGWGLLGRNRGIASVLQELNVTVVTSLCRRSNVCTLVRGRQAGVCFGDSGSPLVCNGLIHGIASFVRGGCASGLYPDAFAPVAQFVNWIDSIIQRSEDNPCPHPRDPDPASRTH
Description: Bovine α-CT and LMW-uPA (MW=33 000 Da) were purchased from Sigma, HMW-uPA (MW=54 000 Da) from Choay, trypsin (TRY) and THR from Boehringer-Indelheim (Germany), and MMP-2 and MMP-9 from Calbiochem. Human leucocyte elastase and PM were from Elastase Products Co. and Biogenic, respectively. Except for THR, HMW-uPA, MMP-2 and MMP-9, enzyme concentrations were determined by active-site titrations using the appropriate titrant ([Bender et al, 1966]; [Chase and Shaw, 1970]; [Powers and Gupton, 1977]). […]
The kinetic parameters for the inhibition were determined either by the preincubation method for LMW-uPA and PM (small aliquots of the reaction mixture were withdrawn at intervals of time and the remaining activity determined), or by the progress curve method (HLE) when the inhibition was too fast to be measured accurately using the preincubation method. […]
At low inhibitor concentrations, the ratio ki/KI was obtained as kobs/[I]0. […] In the progress curve method, the substrate competes with the inhibitor and the kinetic parameters are determined as previously described ([Doucet et al, 1999]). […]

MMP-9 = target: T2, MMP-9 (Homo sapiens, UniProt P14780); experiment: Inhibition of purified MMP-9; format: biochemical; settings: purified enzyme, pH 7.5, 25°C
T2 construct: purchased Calbiochem
Description: Bovine α-CT and LMW-uPA (MW=33 000 Da) were purchased from Sigma, HMW-uPA (MW=54 000 Da) from Choay, trypsin (TRY) and THR from Boehringer-Indelheim (Germany), and MMP-2 and MMP-9 from Calbiochem. Human leucocyte elastase and PM were from Elastase Products Co. and Biogenic, respectively. Except for THR, HMW-uPA, MMP-2 and MMP-9, enzyme concentrations were determined by active-site titrations using the appropriate titrant ([Bender et al, 1966]; [Chase and Shaw, 1970]; [Powers and Gupton, 1977]). Several enzymes were assayed spectrophotometrically at 405 nm using the following p-nitroanilide substrates: succininyl-Ala2-Pro-Phe-p-nitroanilide (Suc-AAPF-p-NA), benzoyl-Arg-p-nitroanilide (Bz-R-p-NA) and methoxysuccinyl-Ala2-Pro-Val-p-nitroanilide (MeO-Suc-AAPV-p-NA) for α-CT, TRY and HLE, respectively (obtained from Sigma); or S-2238 ([…]), S-2444 (<Glu-Gly-Arg-p-nitroanilide) and S-2251 (H-D-Val-Leu-Lys-p-nitroanilide) for THR, HMW- and LMW-uPA, and PM, respectively (from Biogenic). Matrix metalloprotease-2 previously activated by treatment with APMA were assayed at 412 nm with the thiopeptide Ac-Pro-Leu-Gly-^Sleu-Leu-Gly-Oet in the presence of 5,5′-dithiobis(2-nitrobenzenic) acid (DTNB). […]

MDA-MB231 cells = experiment: Tumorigenicity of MDA-MB231 cells injected s.c. with matrigel in nude mice; format: in vivo; settings: 30 mg kg^−1 i.p. three times per week
Description: Matrigel (basement membrane proteins) was extracted from the mouse Engelbreth–Holm–Swarm (EHS) tumour as previously described ([Noël et al, 1991]). Tumoral cells were detached by trypsinisation, harvested by centrifugation, resuspended in 0.25 ml of serum-free medium and mixed with an equal volume of cold matrigel (10 mg ml^−1). The suspension (1 × 10^6 cells injection site^−1) was injected subcutaneously (s.c.) on both body flanks of 6–8-week-old female athymic nude mice (n=6; nu/nu Swiss mice from Iffa credo, L'Arbresle, France). The coumarin derivatives in PBS were injected intraperitoneally (30 mg kg^−1) three times per week during the whole assay.
The tumorigenicity defines the capacity of cells to induce tumour formation. The larger (a) and smaller (b) diameters of the apparent tumour were measured and served for tumour volume calculation according to a × b^2 × 0.4 ([Attia and Weiss, 1966]). Injected mice were examined weekly. Tumours presenting a volume higher than 80 mm^3 and which maintained a progressive growth were taken into account ([Noël et al, 1992]). Results are expressed as the mean (±s.e.m.) of the tumour volumes.

α-CT = settings: pH 7.5, 25°C; ref Pochet et al (2000); cited from earlier work
HLE [2] = target: T1, HLE; settings: pH 8.0, 25°C; ref Pochet et al (2000); cited from earlier work

T2 sequence (P14780 94-707, species assumed): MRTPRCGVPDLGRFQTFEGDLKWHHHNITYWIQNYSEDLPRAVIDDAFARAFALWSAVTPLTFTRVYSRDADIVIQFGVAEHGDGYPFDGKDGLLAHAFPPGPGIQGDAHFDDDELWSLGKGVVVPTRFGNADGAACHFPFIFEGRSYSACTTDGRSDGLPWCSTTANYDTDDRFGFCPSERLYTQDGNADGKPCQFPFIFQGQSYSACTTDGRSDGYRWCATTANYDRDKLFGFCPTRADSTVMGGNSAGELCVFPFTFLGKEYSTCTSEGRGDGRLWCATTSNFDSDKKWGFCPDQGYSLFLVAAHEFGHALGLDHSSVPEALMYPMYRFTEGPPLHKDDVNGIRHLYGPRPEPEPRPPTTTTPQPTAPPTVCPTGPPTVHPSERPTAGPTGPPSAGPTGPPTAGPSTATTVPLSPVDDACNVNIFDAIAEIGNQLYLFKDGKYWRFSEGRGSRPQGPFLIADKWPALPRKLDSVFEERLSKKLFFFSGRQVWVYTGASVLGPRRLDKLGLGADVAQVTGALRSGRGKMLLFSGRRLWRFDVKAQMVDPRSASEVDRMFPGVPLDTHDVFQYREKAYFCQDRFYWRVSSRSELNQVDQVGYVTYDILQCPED

SMILES | kinact/KI (HLE [1]) [M⁻¹ s⁻¹] | inhibition of MMP-9 (MMP-9) | effect on tumour incidence, MDA-MB231 (MDA-MB231 cells) | effect on tumour growth, MDA-MB231 (MDA-MB231 cells; ANOVA, P<0.05) | melting point [°C] | ki/KI or kobs/[I], α-CT (α-CT) | ki/KI or kobs/[I], HLE (HLE [2])
CC(=O)OCc1ccc2oc(=O)c(C(=O)Oc3cccc(Br)c3)cc2c1 [compound 7, 3-bromophenyl 6-acetoxy-methyl-2-oxo-2H-1-benzopyran-3-carboxylate] | 2190 | not affected | did not affect tumour incidence | reduced significantly tumour growth | 141 to 142 |  | 
CC(=O)OCc1ccc2oc(=O)c(C(=O)Oc3cccc(Cl)c3)cc2c1 [compound 4, 3-chlorophenyl 6-acetoxymethyl-2-oxo-2H-1-benzopyran-3-carboxylate] |  | not affected |  |  |  | 20000^a M^−1 s^−1 | 1440^a M^−1 s^−1
